# Results taken from patent US4321265A, “7α-Methoxycephalosporins” (Toyama Chemical Co., Ltd., priority 1977, dated 1982).
# Like-named read-outs stand apart in the source and are kept apart here.
# Assays:
# [1] = target: T1, Cephalosporinase (E. coli GN-5482) (Escherichia coli, UniProt P00811); experiment: Stability to β-lactamase, iodometry (Perret); type: biochemical; settings: E. coli GN-5482 cephalosporinase; CER = 100; 30° C., pH 7.0
# T1 construct: native preparation, details not in excerpts
# T1 sequence (P00811 20-377): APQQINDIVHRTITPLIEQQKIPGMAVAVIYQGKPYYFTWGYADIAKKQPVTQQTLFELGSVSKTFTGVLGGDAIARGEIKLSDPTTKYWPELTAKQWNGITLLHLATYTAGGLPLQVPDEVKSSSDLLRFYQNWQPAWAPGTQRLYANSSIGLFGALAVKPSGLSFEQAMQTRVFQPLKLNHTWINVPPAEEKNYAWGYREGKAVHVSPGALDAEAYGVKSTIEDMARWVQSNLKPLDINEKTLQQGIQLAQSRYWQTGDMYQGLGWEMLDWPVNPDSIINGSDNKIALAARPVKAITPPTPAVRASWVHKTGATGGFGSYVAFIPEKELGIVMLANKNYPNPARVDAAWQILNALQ
# Experimental: (§1) The stability to β-lactamase was examined by iodometry at 30° C. by the method of Perret (Perret, C. J., "Iodometric assay of penicillinase", Nature, 174, 1012-1013 (1954)), except that a 0.1 M phosphate buffer solution (pH 7.0) was used in place of the 0.2 M phosphate buffer solution (pH 6.5). The stability of each compound was shown in Table 2 in terms of relative degree of hydrolysis, assuming the stability of Cephaloridin (CER) to cephalosporinase as 100 and the stability of Penicillin G (PCG) to penicillinase as 100.
# [2] = target: T2, Cephalosporinase (S. marcescens W-8) (Serratia marcescens, UniProt P18539); experiment: Stability to β-lactamase, iodometry (Perret); type: biochemical; settings: S. marcescens W-8 cephalosporinase; CER = 100; 30° C., pH 7.0
# T2 construct: native preparation, details not in excerpts
# T2 sequence (P18539 22-376): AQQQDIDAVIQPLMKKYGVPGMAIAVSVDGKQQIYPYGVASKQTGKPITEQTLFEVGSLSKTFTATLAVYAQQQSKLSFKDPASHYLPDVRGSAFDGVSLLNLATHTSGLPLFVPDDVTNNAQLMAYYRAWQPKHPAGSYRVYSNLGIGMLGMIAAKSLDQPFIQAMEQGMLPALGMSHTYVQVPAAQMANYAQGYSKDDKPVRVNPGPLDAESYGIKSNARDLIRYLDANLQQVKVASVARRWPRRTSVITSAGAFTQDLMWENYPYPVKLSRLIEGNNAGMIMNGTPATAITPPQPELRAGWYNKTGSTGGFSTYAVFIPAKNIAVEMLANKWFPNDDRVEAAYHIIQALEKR
# Experimental: as §1
# [3] = system: Penicillinase (E. coli TK-3); experiment: Stability to β-lactamase, iodometry (Perret); type: biochemical; settings: E. coli TK-3 penicillinase; PCG = 100; 30° C., pH 7.0
# Experimental: as §1
# [4] = system: Penicillinase (K. pneumoniae Y-4); experiment: Stability to β-lactamase, iodometry (Perret); type: biochemical; settings: K. pneumoniae Y-4 penicillinase; PCG = 100; 30° C., pH 7.0
# Experimental: as §1
# [5] = system: Penicillinase (P. aeruginosa GN-3379); experiment: Stability to β-lactamase, iodometry (Perret); type: biochemical; settings: P. aeruginosa GN-3379 penicillinase; PCG = 100; 30° C., pH 7.0
# Experimental: as §1
# [6] = system: Acinetobacter caloaceticus A-6; experiment: Minimum inhibitory concentration (MIC), Heart Infusion agar; type: cell-based; settings: read-out: minimum inhibitory concentration (MIC)
# Experimental: (§2) Antibacterial activities of the representative compounds (Ib) of the 7α-methoxycephalosporins according to this invention are shown in Table 1. [drawing 20]
# (§3) The figures given in Table 1 represent the minimum inhibitory concentration (MIC in mcg/ml) of each compound, which was determined according to the method described in "Chemotherapy (Society of Chemotherapy, Japan), Vol. 16, 98-99 (1968)": A culture obtained by cultivating the test bacterium in a Heart Infusion broth (Eiken Kagaku Co.) was inoculated into a Heart Infusion agar medium (Eiken Kagaku Co.). After 20 hours of the incubation at 37° C., the growth of the bacterium was inspected to determine the minimum inhibitory concentration (MIC in mcg/ml). The inoculation rate of the bacterium was 10^4 cells/plate (10^6 cells/ml).
# (§4) (1) Minimum inhibitory concentration (MIC in mcg/ml).
# [7] = system: C. freundii GN-346 (Cephalosporinase-producing bacterium); experiment: as above; type: cell-based; settings: Citrobacter freundii, read-out: minimum inhibitory concentration (MIC)
# Experimental: as §2, §3, §4
# [8] = system: Citrobacter N-7; experiment: as above; type: cell-based; settings: read-out: minimum inhibitory concentration (MIC)
# Experimental: as §2, §3, §4
# [9] = system: E. coli NIHJ; experiment: as above; type: cell-based; settings: Escherichia coli, read-out: minimum inhibitory concentration (MIC)
# Experimental: as §2, §3, §4
# [10] = system: Ent. cloacae IID977; experiment: as above; type: cell-based; settings: Enterobacter cloacae, read-out: minimum inhibitory concentration (MIC)
# Experimental: as §2, §3, §4
# [11] = system: K. pneumoniae Y-50; experiment: as above; type: cell-based; settings: Klebsiella pneumoniae, read-out: minimum inhibitory concentration (MIC)
# Experimental: as §2, §3, §4
# [12] = system: Klebsiella spp. Y-72; experiment: as above; type: cell-based; settings: read-out: minimum inhibitory concentration (MIC)
# Experimental: as §2, §3, §4
# [13] = system: Prot. vulgaris GN-76; experiment: as above; type: cell-based; settings: Proteus vulgaris, read-out: minimum inhibitory concentration (MIC)
# Experimental: as §2, §3, §4
# [14] = system: Ps. aeruginosa IFO-3445; experiment: as above; type: cell-based; settings: Pseudomonas aeruginosa, read-out: minimum inhibitory concentration (MIC)
# Experimental: as §2, §3, §4
# [15] = system: Ps. aeruginosa S-68; experiment: as above; type: cell-based; settings: Pseudomonas aeruginosa, read-out: minimum inhibitory concentration (MIC)
# Experimental: as §2, §3, §4
# [16] = system: S. aureus F-19 (Penicillinase-producing bacterium); experiment: as above; type: cell-based; settings: Staphylococcus aureus, read-out: minimum inhibitory concentration (MIC)
# Experimental: as §2, §3, §4
# [17] = system: Ser. marcescens IID620; experiment: as above; type: cell-based; settings: Serratia marcescens, read-out: minimum inhibitory concentration (MIC)
# Experimental: as §2, §3, §4
# [18] = system: Ser. marcescens W-8; experiment: as above; type: cell-based; settings: Serratia marcescens, read-out: minimum inhibitory concentration (MIC)
# Experimental: as §2, §3, §4
# [19] = system: Ser. marcescens W-35; experiment: as above; type: cell-based; settings: Serratia marcescens, W35, 20 h
# Experimental: as §2
# as §3, with “The inoculation rate of the bacterium was 10^4 cells/plate (10^6 cells/ml).” left out
# as §4
# [20] = system: S. marcescens W-35; experiment: Infection-protective activity in mice; type: in vivo, ICR-strain mice (male); settings: subcutaneous, one hour after intraperitoneal inoculation; challenge dose 2.5 × 10^5 cells/mouse; ICR mice
# Description: Four-week old ICR-strain mice (male) in groups, each group consisting of five mice, were inoculated intraperitoneally with a prescribed quantity of a pathogenic bacterium suspended in 5% mucin. After one hour from the inoculation, the mice were subcutaneously administered with the test preparation to determine the infection-protective activity. The figures in Table 4 represent the protective activity in terms of ED50.
# [21] = A6, Acinetobacter caloaceticus A-6, 10^6 cells/ml, 20 hours, 37° C.
# [22] = GN346, C. freundii GN-346, 10^6 cells/ml, 20 hours, 37° C.
# [23] = N7, Citrobacter N-7, 10^6 cells/ml, 20 hours, 37° C.
# [24] = E. coli NIHJ, 10^6 cells/ml, 20 hours, 37° C.
# [25] = Ent. cloacae IID977, 10^6 cells/ml, 20 hours, 37° C.
# [26] = Y50, K. pneumoniae Y-50, 10^6 cells/ml, 20 hours, 37° C.
# [27] = SPP.Y72, Klebsiella spp. Y-72, 10^6 cells/ml, 20 hours, 37° C.
# [28] = GN76, Prot. vulgaris GN-76, 10^6 cells/ml, 20 hours, 37° C.
# [29] = IFO3445, Ps. aeruginosa IFO-3445, 10^6 cells/ml, 20 hours, 37° C.
# [30] = S68, Ps. aeruginosa S-68, 10^6 cells/ml, 20 hours, 37° C.
# [31] = S. aureus F-19, 10^6 cells/ml, 20 hours, 37° C.
# [32] = Ser. marcescens IID620, 10^6 cells/ml, 20 hours, 37° C.
# [33] = W8, Ser. marcescens W-8, 10^6 cells/ml, 20 hours, 37° C.
# [34] = Ser. marcescens W-35, 10^6 cells/ml, 20 hours, 37° C. (Table 1), read-out: minimum inhibitory concentration (MIC)
"MIC [6, 21] [µg/mL]","MIC [7, 22] [µg/mL]","MIC [8, 23] [µg/mL]","MIC [9, 24] [µg/mL]","MIC [10, 25] [µg/mL]","MIC [11, 26] [µg/mL]","MIC [12, 27] [µg/mL]","MIC [13, 28] [µg/mL]","MIC [14, 29] [µg/mL]","MIC [15, 30] [µg/mL]","MIC [16, 31] [µg/mL]","MIC [17, 32] [µg/mL]","MIC [18, 33] [µg/mL]","MIC [19, 34] [µg/mL]",SMILES,"Stability to β-lactamase, relative degree of hydrolysis [1]","Stability to β-lactamase, relative degree of hydrolysis [2]","Stability to β-lactamase, relative degree of hydrolysis [3]","Stability to β-lactamase, relative degree of hydrolysis [4]","Stability to β-lactamase, relative degree of hydrolysis [5]",also measured
–,–,–,–,–,–,–,–,–,–,–,–,–,–,"O=C(Cc1cccs1)N[C@@H]1C(=O)N2C(C(=O)[O-])=C(C[n+]3ccccc3)CS[C@H]12 [CER, Cephaloridin]",100,100,115,41,18,–
–,–,–,–,–,–,–,–,–,–,–,–,–,–,"CC1(C)S[C@@H]2[C@H](NC(=O)Cc3ccccc3)C(=O)N2[C@H]1C(=O)O [PC-G, Penicillin G]",22,21,100,100,100,–
–,–,–,–,–,–,–,–,–,–,–,–,–,–,"Cc1nnc(SCC2=C(C(=O)O)N3C(=O)[C@@H](NC(=O)Cn4cnnn4)[C@H]3SC2)s1 [CEZ, Cefazolin]",130,94,21,4,2,–
25,50,1.56,≤ 0.1,25,6.25,25,0.78,25,50,6.25,0.78,50,100,CCN1CCN(C(=O)NC(C(=O)N[C@]2(OC)C(=O)N3C(C(=O)O)=C(CSc4nnnn4CC(=O)O)CS[C@@H]32)c2cccs2)C(=O)C1=O (stereo partly drawn),–,–,–,–,–,–
1.56,≥ 200,50,≤ 0.1,200,1.56,100,0.78,12.5,25,25,0.78,100,200,CCN1CCN(C(=O)NC(C(=O)N[C@]2(OC)C(=O)N3C(C(=O)O)=C(CSc4nnnn4CC(=O)NO)CS[C@@H]32)c2cccs2)C(=O)C1=O (stereo partly drawn),–,–,–,–,–,–
–,–,–,–,–,–,–,–,–,–,–,–,–,–,"CO[C@@]1(NC(=O)CSCC#N)C(=O)N2C(C(=O)O)=C(CSc3nnnn3C)CS[C@@H]21 [CS-1170, reference compound]",–,–,–,–,–,"MIC ([6]; Acinetobacter, A6, 20 h): 50 µg/mL; MIC ([7]; GN346, 20 h): ≥ 200 µg/mL; MIC ([8]; Citrobacter, N7, 20 h): 25 µg/mL; MIC ([9]; 20 h): 0.39 µg/mL; MIC ([10]; IID977, 20 h): ≥ 200 µg/mL; MIC ([11]; Y50, 20 h): 0.39 µg/mL; MIC ([12]; Klebsiella, SPP.Y72, 20 h): 12.5 µg/mL; MIC ([13]; GN76, 20 h): 3.13 µg/mL; MIC ([14]; IFO3445, 20 h): ≥ 200 µg/mL; MIC ([15]; S68, 20 h): ≥ 200 µg/mL; MIC ([16]; 20 h): 1.56 µg/mL; MIC ([17]; IID620, 20 h): 3.13 µg/mL; MIC ([18]; W8, 20 h): ≥ 200 µg/mL; MIC ([19]; S. marcescens W-35, inoculated bacteria quantity 10^6 cells/ml (Table 4)): 100 µg/mL; MIC ([19]; S. marcescens W-35, inoculated bacteria quantity 10^8 cells/ml (Table 4)): 200 µg/mL; MIC ([19]; read-out: minimum inhibitory concentration (MIC), Ser. marcescens W-35, 10^6 cells/ml, 20 hours, 37° C. (Table 1)): 100 µg/mL; ED50 (infection-protective activity) [20]: 15.1 mg/mouse"
12.5,100,12.5,≤ 0.1,100,0.39,1.56,0.78,25,25,6.25,0.78,25,12.5,CCN1CCN(C(=O)NC(C(=O)N[C@]2(OC)C(=O)N3C(C(=O)O)=C(CSc4nncs4)CS[C@@H]32)c2cccs2)C(=O)C1=O (stereo partly drawn),–,–,–,–,–,–

SMILES,"MIC [6, 21] [µg/mL]","MIC [7, 22] [µg/mL]","MIC [8, 23] [µg/mL]","MIC [9, 24] [µg/mL]","MIC [10, 25] [µg/mL]","MIC [11, 26] [µg/mL]","MIC [12, 27] [µg/mL]","MIC [13, 28] [µg/mL]","MIC [14, 29] [µg/mL]","MIC [15, 30] [µg/mL]","MIC [16, 31] [µg/mL]","MIC [17, 32] [µg/mL]","MIC [18, 33] [µg/mL]","MIC [19, 34] [µg/mL]","Stability to β-lactamase, relative degree of hydrolysis [1]","Stability to β-lactamase, relative degree of hydrolysis [2]","Stability to β-lactamase, relative degree of hydrolysis [3]","Stability to β-lactamase, relative degree of hydrolysis [4]","Stability to β-lactamase, relative degree of hydrolysis [5]",also measured
"CCN1CCN(C(=O)N[C@@H](C(=O)N[C@]2(OC)C(=O)N3C(C(=O)O)=C(COC(C)=O)CS[C@@H]32)c2cccs2)C(=O)C1=O [OCOCH3, 7β-[D(-)-α-(4-ethyl-2,3-dioxo-1-piperazinecarboxamido)-α-(2-thienyl)-acetamido]-7α-methoxy-3-acetoxymethyl-Δ^3-cephem-4-carboxylic acid]",25,100,3.13,≤ 0.1,50,1.56,6.25,1.56,50,50,6.25,3.13,100,50,–,–,–,–,–,–
CCN1CCN(C(=O)NC(C(=O)N[C@]2(OC)C(=O)N3C(C(=O)O)=C(CSc4nnnn4C)CS[C@@H]32)c2cccs2)C(=O)C1=O (stereo partly drawn) [drawing 22],12.5,25,0.78,≤ 0.1,25,0.39,6.25,0.2,12.5,12.5,3.13,0.78,25,6.25,–,–,–,–,–,–
